Laboratory results taken from patent US10407445B2, “Hepatitis C virus inhibitors” (ENANTA PHARMACEUTICALS, INC., priority 2013, dated 2019).

Experiments:
Type in all cases: cell-based
[1] = test system: GT1a replicon encoding NS5A mutation M28T; assay: Transient replication assay, GT1a replicon with NS5A mutation M28T; conditions: Hepatitis C virus, read-out: EC50 1a M28T
[2] = test system: GT1a replicon encoding NS5A mutation Y93C; assay: Transient replication assay, GT1a replicon with NS5A mutation Y93C; conditions: Hepatitis C virus, read-out: EC50 1a Y93C
[3] = test system: HCV GT 1b replicon; assay: HCV replicon assay, stable GT 1b replicon (Renilla luciferase); conditions: Hepatitis C virus, GT1B, 72 h
Summary of the method: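 Stable Huh-7.5-based GT1b replicon (Con1-derived) carrying hRluc-Neo, 4000 cells/well seeded onto a sixteen-point half-log compound series in G418-free, phenol red-free medium. After 72 h, Renilla luciferase is read relative to DMSO controls; CC50 in the same cells by CellTiter-Glo.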

[4] = test system: GT1a replicon encoding NS5A mutation Y93H; assay: Transient replication assay, GT1a replicon with NS5A mutation Y93H; conditions: Hepatitis C virus, read-out: EC50 1a Y93H
[5] = test system: GT1a replicon encoding NS5A mutation L31V; assay: Transient replication assay, GT1a replicon with NS5A mutation L31V; conditions: Hepatitis C virus, read-out: EC50 1a L31V

SMILES | EC50 [1] [nM] | EC50 [2] [nM] | EC50 [3] [nM] | EC50 [4] [nM] | EC50 [5] [nM]
COC(=O)N[C@H](C(=O)N1CCC[C@H]1c1nc2ccc(C#Cc3ccc4c(ccc5nc([C@@H]6CCCN6C(=O)[C@@H](NC(=O)OC)C(C)C)[nH]c54)c3)cc2[nH]1)C(C)C [Example 103] | 6 | 2 | 0.004 | 112 | 29
COC(=O)N[C@H](C(=O)N1C[C@]2(CCCOC2)C[C@H]1c1ncc(-c2ccc(-c3ccc4c(ccc5nc([C@@H]6C[C@@H]7COC[C@@H]7N6C(=O)[C@@H](NC(=O)OC)C(C)C)[nH]c54)c3)cc2)[nH]1)C(C)C [Compound 35] | 0.2 | 0.4 | 0.049 | 26 | 0.5
COC(=O)N[C@H](C(=O)N1C[C@]2(CCCCO2)C[C@H]1c1nc(-c2ccc(-c3ccc4c(ccc5nc([C@@H]6CCCN6C(=O)[C@@H](NC(=O)OC)C(C)C)[nH]c54)c3)cc2)c[nH]1)C(C)C [Example 2] | 0.1 | 0.2 | 0.007 | 9 | 0.3
COC(=O)N[C@H](C(=O)N1CCC[C@H]1c1nc2c([nH]1)-c1ccc(-c3ccc4c(ccc5nc([C@@H]6C[C@@]7(CCCOC7)CN6C(=O)[C@@H](NC(=O)OC)C(C)C)[nH]c54)c3)cc1OC2)C(C)C [Compound 25] | 0.5 | 0.09 | 0.068 | 7 | 0.6
COC(=O)N[C@H](C(=O)N1C[C@]2(CCCOC2)C[C@H]1c1nc2ccc3cc(-c4ccc5c(ccc6nc([C@@H]7C[C@@H]8C[C@@H]8N7C(=O)[C@@H](NC(=O)OC)C(C)C)[nH]c65)c4)ccc3c2[nH]1)C(C)C [Compound 21] | 0.2 | 0.09 | 0.03 | 4 | 1
COC(=O)N[C@H](C(=O)N1C[C@]2(CCCOC2)C[C@H]1c1nc2ccc3cc(-c4ccc5c(ccc6nc([C@@H]7C[C@H]8C[C@H]8N7C(=O)[C@@H](NC(=O)OC)C(C)C)[nH]c65)c4)ccc3c2[nH]1)C(C)C [Compound 6] | 0.06 | 0.02 | 0.012 | 0.8 | 0.2
COC(=O)N[C@H](C(=O)N1CCC[C@H]1c1ncc(-c2ccc(-c3ccc4c(ccc5nc([C@@H]6CCCN6C(=O)[C@@H](NC(=O)OC)C(C)C)[nH]c54)c3)cc2)[nH]1)C(C)C [Example 102] | 1 | 0.6 | 0.014 | 22 | 8
COC(=O)N[C@H](C(=O)N1C[C@]2(CCCOC2)C[C@H]1c1ncc(-c2ccc(-c3ccc4c(ccc5nc([C@@H]6CCCN6C(=O)[C@@H](NC(=O)OC)C(C)C)[nH]c54)c3)cc2)[nH]1)C(C)C [Compound 47] | 0.2 | 0.3 | 0.016 | 8 | 1
COC(=O)N[C@H](C(=O)N1CCC[C@H]1c1ncc(-c2ccc(-c3ccc4c(c3)OCc3nc([C@@H]5C[C@@]6(CCCOC6)CN5C(=O)[C@@H](NC(=O)OC)C(C)C)[nH]c3-4)cc2)[nH]1)C(C)C [Compound 33] | 0.3 | 0.1 | 0.038 | 4 | 0.3
COC(=O)N[C@H](C(=O)N1C[C@@]2(CCOC2)C[C@H]1c1ncc(-c2ccc(-c3ccc4c(ccc5nc([C@@H]6CCCN6C(=O)[C@@H](NC(=O)OC)C(C)C)[nH]c54)c3)cc2)[nH]1)C(C)C [Compound 50] | 0.5 | 0.4 | 0.016 | 7 | 1
